The source made the active and inactive calls. No cut-off for these calls is given here.
How the values were obtained:
[1] = target: T1, DNA topoisomerase 1 (Homo sapiens) (UniProt P11387); experiment: Inhibition of recombinant human topoisomerase 1 expressed in yeast TopI null strain RS190 at 100 uM using negatively supercoiled pUC18 plasmid DNA as substrate incubated for 15 secs by agarose gel electrophoresis method; conditions: time 15.0 sec
T1 sequence (whole entry): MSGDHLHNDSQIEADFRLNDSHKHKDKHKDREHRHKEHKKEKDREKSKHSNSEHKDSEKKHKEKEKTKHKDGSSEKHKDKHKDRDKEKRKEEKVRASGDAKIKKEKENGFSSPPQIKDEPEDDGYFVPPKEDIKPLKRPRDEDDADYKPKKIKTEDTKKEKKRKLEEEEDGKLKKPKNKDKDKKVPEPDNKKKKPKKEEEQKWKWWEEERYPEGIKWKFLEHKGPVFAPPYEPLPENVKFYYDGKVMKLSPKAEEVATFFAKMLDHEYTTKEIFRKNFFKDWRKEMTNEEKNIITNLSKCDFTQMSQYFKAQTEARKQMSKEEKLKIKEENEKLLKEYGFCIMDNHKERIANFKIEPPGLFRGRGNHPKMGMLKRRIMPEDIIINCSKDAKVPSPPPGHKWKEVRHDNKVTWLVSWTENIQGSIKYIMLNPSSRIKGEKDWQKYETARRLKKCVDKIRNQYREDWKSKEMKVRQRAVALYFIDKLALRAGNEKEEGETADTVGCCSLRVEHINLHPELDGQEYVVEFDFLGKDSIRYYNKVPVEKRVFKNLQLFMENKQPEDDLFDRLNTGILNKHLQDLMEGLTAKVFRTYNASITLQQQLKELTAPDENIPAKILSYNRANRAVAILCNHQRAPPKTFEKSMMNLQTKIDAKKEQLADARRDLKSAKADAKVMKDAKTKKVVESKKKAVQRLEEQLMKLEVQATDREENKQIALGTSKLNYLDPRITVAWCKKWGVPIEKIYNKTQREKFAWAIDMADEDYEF

[2] = target: T1, DNA topoisomerase 1 (Homo sapiens); experiment: Inhibition of recombinant human topoisomerase 1 expressed in yeast TopI null strain RS190 at 100 uM using negatively supercoiled pUC18 plasmid DNA as substrate incubated for 1 min by agarose gel electrophoresis method
[3] = target: T1, DNA topoisomerase 1 (Homo sapiens); experiment: Inhibition of recombinant human topoisomerase 1 expressed in yeast TopI null strain RS190 at 100 uM using negatively supercoiled pUC18 plasmid DNA as substrate incubated for 3 min by agarose gel electrophoresis method
[4] = test system: A549; experiment: Antiproliferative activity against human A549 cells assessed as cell growth inhibition measured after 48 hrs by CCK-8 assay; format: functional, cell-based; conditions: A549, 48 h
[5] = test system: SK-OV-3; experiment: Antiproliferative activity against human SK-OV-3 cells assessed as cell growth inhibition measured after 48 hrs by CCK-8 assay; format: functional, cell-based; conditions: SK-OV-3, 48 h
[6] = test system: MRC5; experiment: Antiproliferative activity against human MRC5 cells assessed as cell growth inhibition measured after 48 hrs by CCK-8 assay; format: cell-based; conditions: MRC5, 48 h
[7] = target: T1, DNA topoisomerase 1 (Homo sapiens); experiment: Poison activity at recombinant human topoisomerase 1 expressed in yeast TopI null strain RS190 assessed as increase in nicked plasmid DNA at 100 uM using supercoiled pUC18 plasmid DNA as substrate incubated for 15 to 180 secs by Ethidium bromide staining based agarose gel electrophoresis analysis; conditions: time 15-180 sec

| Compound | inhibition [1] [%] | inhibition [2] [%] | inhibition [3] [%] | IC50 [4] [µM] | IC50 [5] [µM] | IC50 [6] [µM] | Activity [7] |
| --- | --- | --- | --- | --- | --- | --- | --- |
| Cc1ccc2c(c1)[C@H]1Nc3ncccc3[C@@H](c3ccccc3)[C@@H]1CO2 | 21 | 15 | 1 | > 50 | > 50 | > 50 |  |
| c1ccc([C@@H]2c3cccnc3N[C@@H]3c4ccccc4OC[C@@H]23)cc1 | 61 | 60 | 5 | 11.7 | 12.2 | > 50 |  |
| CC[C@@]1(O)C(=O)OCc2c1cc1n(c2=O)Cc2cc3ccccc3nc2-1 |  |  |  |  |  |  | Active |
| Fc1ccc2c(c1)[C@H]1Nc3ncccc3[C@@H](c3ccccc3)[C@@H]1CO2 | 14 | 14 | 1 | > 50 | > 50 | > 50 |  |
| O=c1oc2ccccc2c2nc3ncccc3c(-c3ccccc3)c12 | 75 | 75 | 51 | 1.23 | 1.78 | > 50 |  |
| COc1ccc(-c2c3c(nc4ncccc24)-c2ccccc2OC3)cc1 | 11 | 11 | 6 | > 50 | > 50 | > 50 |  |
| O=c1oc2ccccc2c2nc3ncc(Br)cc3c(-c3ccccc3)c12 | 21 | 15 | 5 | > 50 | > 50 | > 50 |  |
| O=C1Oc2ccc(F)cc2[C@H]2Nc3ncccc3[C@@H](c3ccccc3)[C@H]12 | 5 | 5 | 4 | > 50 | > 50 | > 50 |  |
| Cc1ccc(S(=O)(=O)N2Cc3c(nc4ncccc4c3-c3ccccc3)-c3ccccc32)cc1 | 95 | 93 | 92 | 17.9 | 16.9 | > 50 |  |
| Cc1ccc(S(=O)(=O)N2C[C@H]3[C@H](c4ccccc4)c4cccnc4N[C@@H]3c3ccccc32)cc1 | 91 | 89 | 85 | 6.3 | 8.21 | > 50 | Active |
| Cc1ccc(S(=O)(=O)N2Cc3c(nc4ncc(Br)cc4c3-c3ccccc3)-c3ccccc32)cc1 | 98 | 98 | 95 | 10.5 | 12.2 | > 50 | Active |
| c1ccc(-c2c3c(nc4ncccc24)-c2ccccc2OC3)cc1 | 10 | 9 | 2 | > 50 | > 50 | > 50 |  |
| Cc1ccc2c(c1)-c1nc3ncccc3c(-c3ccccc3)c1CO2 | 26 | 1 | 1 | > 50 | > 50 | > 50 |  |
| Fc1ccc2c(c1)-c1nc3ncccc3c(-c3ccccc3)c1CO2 | 41 | 40 | 11 | 31.2 | 38.1 | > 50 |  |
| O=c1oc2ccc(F)cc2c2nc3ncccc3c(-c3ccccc3)c12 | 5 | 4 | 4 | > 50 | > 50 | > 50 |  |
| O=C1Oc2ccccc2[C@H]2Nc3ncc(Br)cc3[C@@H](c3ccccc3)[C@H]12 | 11 | 10 | 1 | > 50 | > 50 | > 50 |  |
